Measured values taken from patent publication US10266548B2, “Substituted benzylindazoles for use as Bub1 kinase inhibitors in the treatment of hyperproliferative diseases” (Bayer Intellectual Property GmbH, priority 2011, dated 2019).

target: catalytic domain of human Bub1 (amino acids 704-1085) (Homo sapiens (Human), UniProt O43683); assay: Bub1 kinase assay (TR-FRET); assay type: biochemical; conditions: 10 μM ATP, 1 μM peptide substrate; read-out: Biological Assay 1: Bub1 kinase assay median IC50
Method: To this end, 100-fold concentrated compound solutions (in DMSO) were previously prepared by serial dilution (1:3.4) of 2 mM stocks in a clear low volume 384-well source microtiter plate (Greiner Bio-One, Frickenhausen, Germany), from which 50 nl of compounds were transferred into a black low volume test microtiter plate from the same supplier. […] The resulting mixture (5 μl final volume) was incubated at 22° C. during 60 min., and the reaction was stopped by the addition of 5 μl of an aqueous EDTA-solution (50 mM EDTA, in 100 mM HEPES pH 7.5 and 0.2% (w/v) bovine serum albumin) which also contained the TR-FRET detection reagents (0.2 μM streptavidin-XL665 [Cisbio Bioassays, Codolet, France] and 1 nM anti-phosho-Serine antibody [Merck Millipore, cat. #35-001] and 0.4 nM LANCE EU-W1024 labeled anti-mouse IgG antibody [Perkin-Elmer, product no. AD0077, alternatively a Terbium-cryptate-labeled anti-mouse IgG antibody from Cisbio Bioassays can be used]). The stopped reaction mixture was further incubated 1 h at 22° C. in order to allow the formation of complexes between peptides and detection reagents. Subsequently, the amount of product was evaluated by measurement of the resonance energy transfer from the Eu-chelate-antlbody complex recognizing the Phosphoserlne residue to the streptavidin-XL665 bound to the biotin moiety of the peptide. […] IC50 values were calculated by fitting the normalized inhibition data to a 4-parameter logistic equation (Minimum, Maximum, IC50, Hill; Y=Max+(Min−Max)/(1+(X/IC50)Hill)) using a Bayer-proprietary analysis software.

catalytic domain of human Bub1 (amino acids 704-1085), sequence (O43683 704-1085): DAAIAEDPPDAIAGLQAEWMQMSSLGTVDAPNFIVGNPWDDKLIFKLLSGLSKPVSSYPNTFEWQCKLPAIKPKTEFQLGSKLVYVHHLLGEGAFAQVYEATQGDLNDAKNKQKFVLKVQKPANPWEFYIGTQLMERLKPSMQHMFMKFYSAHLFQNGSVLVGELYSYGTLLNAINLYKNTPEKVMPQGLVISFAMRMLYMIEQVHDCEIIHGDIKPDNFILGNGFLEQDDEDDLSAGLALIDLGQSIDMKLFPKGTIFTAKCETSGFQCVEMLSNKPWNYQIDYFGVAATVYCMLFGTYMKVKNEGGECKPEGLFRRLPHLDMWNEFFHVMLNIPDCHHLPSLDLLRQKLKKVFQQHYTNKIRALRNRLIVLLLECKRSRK

| IC50 [nM] | Compound |
| --- | --- |
| 290 | COc1cnc(-c2nn(Cc3ccc(C)c(F)c3F)c3ccccc23)nc1N(Cc1ccc(C)c(F)c1F)c1ccncc1 [Example 2-8-2, N-(2,3-difluoro-4-methylbenzyl)-2-[1-(2,3-difluoro-4-methylbenzyl)-1H-indazol-3-yl]-5-methoxy-N-(pyridin-4-yl)pyrimidin-4-amine] |
| 730 | CCOc1ccc(CN(c2ccncc2)c2nc(-c3nn(Cc4ccc(OCC)c(F)c4F)c4ccccc34)ncc2OC)c(F)c1F [Example 2-14-2, N-(4-ethoxy-2,3-difluorobenzyl)-2-[1-(4-ethoxy-2,3-difluorobenzyl)-1H-indazol-3-yl]-5-methoxy-N-(pyridin-4-yl)pyrimidin-4-amine] |
| 940 | CCOc1cc(O)c(Cn2nc(-c3ncc(OC)c(Nc4cc(C)nc(C)c4)n3)c3ccccc32)c(F)c1 [Example 24-6, 2-[(3-[4-[(2,6-dimethylpyridin-4-yl)amino]-5-methoxypyrimidin-2-yl}-1H-indazol-1-yl)methyl]-5-ethoxy-3-fluorophenol] |
| 3500 | COc1cnc(-c2nn(Cc3c(F)ccc(OC)c3F)c3ccccc23)nc1N(Cc1c(F)ccc(OC)c1F)c1ccncc1 [Example 2-4-2, N-(2,6-difluoro-3-methoxybenzyl)-2-[1-(2,6-difluoro-3-methoxybenzyl)-1H-indazol-3-yl]-5-methoxy-N-(pyridin-4-yl)pyrimidin-4-amine] |
| 430 | OCC1(COc2cnc(-c3nn(Cc4ccccc4F)c4ccccc34)nc2N(CC2(CO)COC2)c2ccncc2)COC1 [Example 4-2-2, (3-{[(2-[1-(2-fluorobenzyl)-1H-indazol-3-yl]-5-{[3-(hydroxymethyl)oxetan-3-yl]methoxy}pyrimidin-4-yl)(pyridin-4-yl)amino]methyl}oxetan-3-yl)methanol] |
| 20000 | COc1cnc(-c2nn(Cc3c(Cl)ccc(C(=O)O)c3Cl)c3ccccc23)nc1Nc1ccncc1 [Example 19-1, 2,4-dichloro-3-({3-[5-methoxy-4-(pyridin-4-ylamino)pyrimidin-2-yl]-1H-indazol-1-yl}methyl)benzoic acid] |
| 4280 | COc1cnc(-c2nn(Cc3ccccc3F)c3ccccc23)nc1N(c1ccncc1)c1ccncc1 [Example 24-4] |
| 41 | COc1cnc(-c2nn(Cc3c(Cl)ccc([N+](=O)[O-])c3Cl)c3ccccc23)nc1Nc1ccncc1 [Example 2-44-1, 2-[1-(2,6-dichloro-3-nitrobenzyl)-1H-indazol-3-yl]-5-methoxy-N-(pyridin-4-yl)pyrimidin-4-amine] |
| 9.8 | COc1cnc(-c2nn(Cc3ccc(C(C)(C)O)cc3Cl)c3ccccc23)nc1Nc1ccncc1 [Example 9-1, 2-[3-chloro-4-({3-[5-methoxy-4-(pyridin-4-ylamino)pyrimidin-2-yl]-1H-indazol-1-yl}methyl)phenyl]propan-2-ol] |
| 4700 | N#Cc1cnc(-c2nn(Cc3ccccc3F)c3ccccc23)nc1Nc1ccncc1 [Example 31-1, 2-[1-(2-fluorobenzyl)-1H-indazol-3-yl]-4-(pyridin-4-ylamino)pyrimidine-5-carbonitrile] |

Continued, molecule first:

| Compound | IC50 [nM] |
| --- | --- |
| COc1cnc(-c2nn(Cc3c(F)cccc3OC)c3ccccc23)nc1Nc1ccncc1 [Example 2-49-1, 2-[1-(2-fluoro-6-methoxybenzyl)-1H-indazol-3-yl]-5-methoxy-N-(pyridin-4-yl)pyrimidin-4-amine] | 1500 |
| COc1cc(C(F)(F)F)ccc1Cn1nc(-c2ncc(OC)c(Nc3ccncc3)n2)c2ccccc21 [Example 2-47-1, 5-methoxy-2-{1-[2-methoxy-4-(trifluoromethyl)benzyl]-1H-indazol-3-yl}-N-(pyridin-4-yl)pyrimidin-4-amine] | 2400 |
| COc1ccc(Cn2nc(-c3ncc(OC)c(Nc4ccnc(C)c4)n3)c3ccccc32)cc1 [Example 34-4, 5-methoxy-2-[1-(4-methoxybenzyl)-1H-indazol-3-yl)-N-(2-methylpyridin-4-yl)pyrimidin-4-amine] | 120 |
| COc1cnc(-c2nn(Cc3ccccc3Cl)c3ccccc23)nc1N(Cc1ccccc1Cl)c1ccncc1 [Example 2-10-2, N-(2-chlorobenzyl)-2-[1-(2-chlorobenzyl)-1H-indazol-3-yl]-5-methoxy-N-(pyridin-4-yl)pyrimidin-4-amine] | 1200 |
| COc1cnc(-c2nn(Cc3ccc(CC(=O)O)cc3F)c3ccccc23)nc1Nc1ccncc1 [Example 2-22-1, [3-fluoro-4-({3-[5-methoxy-4-(pyridin-4-ylamino)pyrimidin-2-yl]-1H-indazol-1-yl}methyl)phenyl]acetic acid] | 3200 |
| COc1cnc(-c2nn(Cc3ccc(SC(F)(F)F)cc3)c3ccccc23)nc1Nc1ccncc1 [Example 2-9-3, 5-methoxy-N-(pyridin-4-yl)-2-(1-{4-[(trifluoromethyl)sulfanyl]benzyl}-1H-indazol-3-yl)pyrimidin-4-amine] | 20000 |
| CCOc1cc(F)c(CN(c2ccncc2)c2nc(-c3nn(Cc4c(F)cc(OCC)cc4F)c4ccccc34)ncc2OC)c(F)c1 [Example 2-5-2, N-(4-ethoxy-2,6-difluorobenzyl)-2-[1-(4-ethoxy-2,6-difluorobenzyl)-1H-indazol-3-yl]-5-methoxy-N-(pyridin-4-yl)pyrimidin-4-amine] | 9300 |
| CC(C)(C)OC(=O)NCCOCCOc1cnc(-c2nn(Cc3ccccc3F)c3ccccc23)nc1Nc1ccncc1 [Example 4-20, tert-butyl {2-[2-({2-[1-(2-fluorobenzyl)-1H-indazol-3-yl]-4-(pyridin-4-ylamino)pyrimidin-5-yl}oxy)ethoxy]ethyl}carbamate] | 210 |
| COc1cnc(-c2nn(Cc3cccc(-c4noc(C)n4)c3)c3ccccc23)nc1Nc1ccncc1 [Example 2-2-3, 5-methoxy-2-{1-[3-(5-methyl-1,2,4-oxadiazol-3-yl)benzyl]-1H-indazol-3-yl}-N-(pyridin-4-yl)pyrimidin-4-amine] | 25 |
| COc1cnc(-c2nn(Cc3cccc(C#N)c3)c3ccccc23)nc1Nc1ccncc1 [Example 2-45-1, 3-({3-[5-methoxy-4-(pyridin-4-ylamino)pyrimidin-2-yl]-1H-indazol-1-yl}methyl)benzonitrile] | 110 |
| CNC(=O)c1cc(F)c(Cn2nc(-c3ncc(OC)c(Nc4ccncc4)n3)c3ccccc32)c(F)c1 [Example 20-6, 3,5-difluoro-4-({3-[5-methoxy-4-(pyridin-4-yla-mino)pyrimidin-2-yl]-1H-indazol-1-yl}methyl)-N-methylbenzamide] | 6700 |
| OCC1COc2cnc(-c3nn(Cc4ccccc4F)c4ccccc34)nc2N1c1ccncc1 (stereo not shown) [Example 22-1, {2-[1-(2-fluorobenzyl)-1H-indazol-3-yl]-8-(pyridin-4-yl)-7,8-dihydro-6H-pyrimido[5,4-b][1,4]oxazin-7-yl}methanol] | 770 |
| COC(=O)c1cnccc1Nc1nc(-c2nn(Cc3ccccc3F)c3ccccc23)ncc1OC [Example 24-2, methyl 4-({2-[1-(2-fluorobenzyl)-1H-indazol-3-yl]-5-methoxypyrimidin-4-yl}amino)pyridine-3-carboxylate] | 20000 |
| N#Cc1cnccc1Nc1nc(-c2nn(Cc3ccccc3F)c3ccccc23)ncc1Oc1ccncc1C#N [Example 26-2] | 2400 |
| CCOc1cc(F)c(Cn2nc(-c3ncc(OC)c(Nc4ccncc4C#N)n3)c3ccccc32)c(F)c1 [Example 24-5, 4-({2-[1-(4-ethoxy-2,6-difluorobenzyl)-1H-indazol-3-yl]-5-methoxypyrimidin-4-yl}amino)pyridine-3-carbonitrile] | 11 |
